pIC50: −log10 of the molar value.
Molecular target: SARS-CoV-2 3CL protease (Severe acute respiratory syndrome coronavirus 2, UniProt P0DTD1)
Experiment: biochemical
Settings: IC50

SMILES | pIC50
Cn1cnc(Cn2c(=O)nc(Nc3cc4cn(CC(=O)NC5CC5)nc4cc3Cl)n(Cc3cc(Cl)c(F)cc3F)c2=O)n1 [II-0148] | > 7.00
Cn1cnc(Cn2c(=O)nc(Nc3cc4cn(CC(=O)N5CCC5)nc4cc3Cl)n(Cc3cc(Cl)c(F)cc3F)c2=O)n1 [II-0149] | > 7.00
CCNC(=O)Cn1cc2cc(Nc3nc(=O)n(Cc4ncn(C)n4)c(=O)n3Cc3cc(F)c(F)c(Cl)c3)c(Cl)cc2n1 [II-0150] | > 7.00
CCNC(=O)Cn1cc2cc(Nc3nc(=O)n(Cc4ncn(C)n4)c(=O)n3Cc3cc(Cl)c(F)cc3F)c(Cl)cc2n1 [II-0151] | > 7.00
Cn1cnc(Cn2c(=O)nc(Nc3cc4cn(CC(=O)NC5CC5)nc4cc3Cl)n(Cc3cc(F)c(F)c(Cl)c3)c2=O)n1 [II-0152] | > 7.00
Cn1cnc(Cn2c(=O)nc(Nc3cc4cn(CC(=O)N5CCC5)nc4cc3Cl)n(Cc3cc(F)c(F)c(Cl)c3)c2=O)n1 [II-0153] | > 7.00
CN(C(=O)Cn1cc2cc(Nc3nc(=O)n(Cc4ncn(C)n4)c(=O)n3Cc3cc(F)c(F)c(Cl)c3)c(Cl)cc2n1)C1CC1 [II-0155] | > 7.00
CC(=O)Nc1nc2ccc(Nc3nc(=O)n(-c4cncc5ccccc45)c(=O)n3Cc3ccc(F)c(C#N)c3)cc2s1 [II-0170] | > 7.00
Cc1cncc(-n2c(=O)nc(Nc3ccc4[nH]ncc4c3)n(Cc3ccc(F)c(C#N)c3)c2=O)c1 [II-0206] | > 7.00
CC(C)(C)OC(=O)NC12CC(Nc3nc(=O)n(Cc4ccc[nH]c4=O)c(=O)n3Cc3cc(F)c(F)c(F)c3)(C1)C2 [II-0209] | > 7.00
Cn1cnc(Cn2c(=O)nc(Nc3cc4cn(C)nc4cc3Cl)n(Cc3cc(F)cc4c3OCOC4)c2=O)n1 [II-0211] | > 7.00
COC(=O)c1cccc2c1CN(c1nc(=O)n(Cc3ccc[nH]c3=O)c(=O)n1Cc1cc(F)c(F)c(F)c1)C2 [II-0216] | > 7.00
Cn1cnc(Cn2c(=O)nc(Nc3cc4cn(C)nc4cc3Cl)n(Cc3cccc4cccnc34)c2=O)n1 [II-0224] | 5.72
Cn1cnc(Cn2c(=O)nc(Nc3cc4cn(C)nc4cc3Cl)n(Cc3c4ccccc4cc4ccccc34)c2=O)n1 [II-0225] | 5.57
O=c1[nH]cccc1Cn1c(=O)nc(NC(c2ccccc2)c2ccccc2O)n(Cc2cc(F)c(F)c(F)c2)c1=O (centres unmarked) [II-0229] | 6.60
C[C@H](Nc1nc(=O)n(Cc2ccc[nH]c2=O)c(=O)n1Cc1cc(F)c(F)c(F)c1)c1ccccc1 [II-0230] | 6.26
O=c1[nH]cccc1Cn1c(=O)nc(NC2CC(F)(F)C2)n(Cc2cc(F)c(F)c(F)c2)c1=O [II-0231] | 6.06
CC(=O)NCCn1cc2cc(Nc3nc(=O)n(Cc4ccccn4)c(=O)n3Cc3cc(F)c(F)cc3F)c(Cl)cc2n1 [II-0248] | > 7.00
Cn1cc2cc(Nc3nc(=O)n(Cc4cc5[nH]cnc5cn4)c(=O)n3Cc3cc(F)c(F)cc3F)c(Cl)cc2n1 [II-0256] | 6.80
CNc1nc2cc(Cl)c(Nc3nc(=O)n(Cc4ncn(C)n4)c(=O)n3Cc3cc(Cl)c(F)cn3)cc2s1 [II-0266] | > 7.00
CCn1cc2cc(Nc3nc(=O)n(Cc4ncn(C)n4)c(=O)n3Cc3cc(Cl)c(F)cn3)c(Cl)cc2n1 [II-0268] | > 7.00
COc1ccc(Nc2nc(=O)n(CC3(C)COC3)c(=O)n2Cc2cc(F)c(F)c(F)c2)cc1 [II-0274] | 5.52
CN(C)C(=O)Cn1cc2cc(Nc3nc(=O)n(Cc4ncn(C)n4)c(=O)n3Cc3cc(Cl)c(F)cc3F)c(Cl)cc2n1 [II-0276] | > 7.00

SMILES | pIC50
CN(C)C(=O)Cn1cc2cc(Nc3nc(=O)n(Cc4ncn(C)n4)c(=O)n3Cc3cc(F)c(F)c(Cl)c3)c(Cl)cc2n1 [II-0277] | > 7.00
CN(C)C(=O)Cn1cc2cc(Nc3nc(=O)n(Cc4ncn(C)n4)c(=O)n3Cc3cc(F)c(F)cc3F)c(Cl)cc2n1 [II-0280] | > 7.00
CNc1nc2cc(F)c(Nc3nc(=O)n(-c4cncc(C)c4)c(=O)n3Cc3cc(F)c(F)c(Cl)c3)cc2s1 [II-0293] | > 7.00
CC(=O)Nc1nc2cc(Cl)c(Nc3nc(=O)n(Cc4ncn(C)n4)c(=O)n3Cc3cc(F)c(F)c(F)c3)cc2s1 [II-0310] | > 7.00
CNC(=O)c1cnc2[nH]c(=O)c(Cn3c(=O)nc(Nc4ccc5c(c4)CCO5)n(Cc4cc(F)c(F)c(F)c4)c3=O)cc2c1 [II-0314] | > 7.00
CN(C)C(=O)c1cnc2[nH]c(=O)c(Cn3c(=O)nc(Nc4ccc5c(c4)CCO5)n(Cc4cc(F)c(F)c(F)c4)c3=O)cc2c1 [II-0315] | > 7.00
NC(=O)c1cnc2[nH]c(=O)c(Cn3c(=O)nc(Nc4ccc5c(c4)CCO5)n(Cc4cc(F)c(F)c(F)c4)c3=O)cc2c1 [II-0317] | > 7.00
Cn1cnc(Cn2c(=O)nc(Nc3cc4cn(CC(=O)O)nc4cc3Cl)n(Cc3cc(Cl)c(F)cc3F)c2=O)n1 [II-0319] | > 7.00
Cn1cnc(Cn2c(=O)nc(Nc3cc4cn(CC(=O)O)nc4cc3Cl)n(Cc3cc(F)c(F)c(Cl)c3)c2=O)n1 [II-0321] | > 7.00
COc1ccc(Nc2nc(=O)n(Cc3cc(C(=O)NCc4cnn(C)c4)c[nH]c3=O)c(=O)n2Cc2cc(F)c(F)c(F)c2)cc1 [II-0324] | > 7.00
COc1ccc(Nc2nc(=O)n(Cc3cc(C(=O)NCc4ccn(C)n4)c[nH]c3=O)c(=O)n2Cc2cc(F)c(F)c(F)c2)cc1 [II-0325] | > 7.00
COc1ccc(Cc2nc(=O)n(Cc3ccc[nH]c3=O)c(=O)n2Cc2cc(F)c(F)c(F)c2)cc1 [II-0327] | 5.82
CNC(=O)Cn1c(=O)[nH]/c(=N\c2cc3cn(C)nc3cc2Cl)n(Cc2cc(F)c(F)c(F)c2)c1=O [II-0328] | > 7.00
CNC(=O)Cn1c(=O)[nH]/c(=N\c2ccc(OC(F)F)cc2C)n(Cc2cc(F)c(F)c(F)c2)c1=O [II-0331] | 5.00 to 6.00
CN(C)C(=O)CCn1cc2cc(Nc3nc(=O)n(Cc4ncn(C)n4)c(=O)n3Cc3cc(Cl)c(F)cc3F)c(Cl)cc2n1 [II-0338] | > 7.00
CCNc1nc2cc(Cl)c(Nc3nc(=O)n(Cc4ncn(C)n4)c(=O)n3Cc3cc(Cl)c(F)cn3)cc2s1 [II-0340] | > 7.00
Cc1cncc(-n2c(=O)nc(Nc3ccc4nnn(C)c4c3)n(Cc3ccc(F)c(C#N)c3)c2=O)c1 [II-0357] | > 7.00
Cc1cncc(-n2c(=O)nc(Nc3cc4c(cc3C)nc(C)n4C)n(Cc3ccc(F)c(C#N)c3)c2=O)c1 [II-0358] | > 7.00
O=c1[nH]cccc1Cn1c(=O)nc(N[C@@H]2CCN(c3ccccn3)C2)n(Cc2cc(F)c(F)c(F)c2)c1=O [II-0374] | 5.46
Cn1cnc(Cn2c(=O)cc(Nc3cc4cn(C)nc4cc3Cl)n(Cc3ccc(F)c(C#N)c3)c2=O)n1 [II-0379] | > 7.00
Cn1cnc(Cn2c(=O)nc(Nc3cc4c(cc3Cl)nc3n4CCN3)n(Cc3cc(F)c(F)c(Cl)c3)c2=O)n1 [II-0411] | > 7.00
Cc1cncc(-n2c(=O)nc(Nc3cc4sc(NS(C)(=O)=O)nc4cc3Cl)n(Cc3ccc(F)c(C#N)c3)c2=O)c1 [II-0427] | > 7.00
Cn1cnc(Cn2c(=O)nc(Nc3cc4cn(C)nc4cc3Cl)n(Cc3cc(Cl)ccc3O)c2=O)n1 [II-0428] | 6.08

SMILES | pIC50
Cn1cnc(Cn2c(=O)cc(Nc3cc4cn(CC(F)F)nc4cc3Cl)n(Cc3ccc(F)c(C#N)c3)c2=O)n1 [II-0432] | > 7.00
COc1cnc(NC23CC(Nc4nc(=O)n(Cc5ccc[nH]c5=O)c(=O)n4Cc4cc(F)c(F)c(F)c4)(C2)C3)nc1 [II-0441] | > 7.00
O=c1[nH]cccc1Cn1c(=O)nc(NC23CC(Nc4ncccn4)(C2)C3)n(Cc2cc(F)c(F)c(F)c2)c1=O [II-0443] | > 7.00
Cc1cnc(NC23CC(Nc4nc(=O)n(Cc5ccc[nH]c5=O)c(=O)n4Cc4cc(F)c(F)c(F)c4)(C2)C3)nc1 [II-0444] | > 7.00
O=c1[nH]cccc1Cn1c(=O)nc(NC23CC(Nc4ncc(C5CC5)cn4)(C2)C3)n(Cc2cc(F)c(F)c(F)c2)c1=O [II-0445] | > 7.00
CN1CC[C@H](n2cc3cc(Nc4nc(=O)n(Cc5ncn(C)n5)c(=O)n4Cc4cc(Cl)c(F)cc4F)c(Cl)cc3n2)C1=O [II-0447] | > 7.00
CN1CC[C@H](n2cc3cc(Nc4nc(=O)n(Cc5ncn(C)n5)c(=O)n4Cc4cc(F)c(F)c(Cl)c4)c(Cl)cc3n2)C1=O [II-0451] | > 7.00
O=c1[nH]cccc1Cn1c(=O)nc(NC23CC(Nc4ncc(C(F)(F)F)cn4)(C2)C3)n(Cc2cc(F)c(F)c(F)c2)c1=O [II-0456] | > 7.00
O=c1[nH]cccc1Cn1c(=O)nc(NC23CC(Nc4ncc5ccccc5n4)(C2)C3)n(Cc2cc(F)c(F)c(F)c2)c1=O [II-0457] | > 7.00
CN1CC[C@H](n2cc3cc(Nc4nc(=O)n(Cc5ncn(C)n5)c(=O)n4Cc4cc(F)c(F)cc4F)c(Cl)cc3n2)C1=O [II-0465] | > 7.00
Cc1cncc(-n2c(=O)nc(Nc3cc4c(=O)n(C)cnc4cc3Cl)n(Cc3ccc(F)c(C#N)c3)c2=O)c1 [II-0467] | > 7.00
Cn1cnc(Cn2c(=O)nc(NC34CC(Nc5ncc(C(F)(F)F)cn5)(C3)C4)n(Cc3cc(F)c(F)c(F)c3)c2=O)n1 [II-0470] | > 7.00
Cn1cnc(Cn2c(=O)nc(Nc3cc4cn(CC(F)F)nc4cc3F)n(Cc3ccc(F)c(C#N)c3)c2=O)n1 [II-0471] | > 7.00
Cn1cnc(Cn2c(=O)nc(NC34CC(Nc5ncc6ccccc6n5)(C3)C4)n(Cc3cc(F)c(F)c(F)c3)c2=O)n1 [II-0472] | > 7.00
Cn1cnc(Cn2c(=O)nc(NC34CC(Nc5ncc(F)cn5)(C3)C4)n(Cc3cc(F)c(F)c(F)c3)c2=O)n1 [II-0473] | > 7.00
Cn1cnc(Cn2c(=O)nc(NC34CC(Nc5ncccn5)(C3)C4)n(Cc3cc(F)c(F)c(F)c3)c2=O)n1 [II-0474] | > 7.00
O=c1[nH]cccc1Cn1c(=O)nc(NC23CC(Nc4ccccn4)(C2)C3)n(Cc2cc(F)c(F)c(F)c2)c1=O [II-0476] | > 7.00
Cc1cncc(-n2c(=O)nc(Nc3cc4c(=O)n(C)cnc4cc3F)n(Cc3ccc(F)c(C#N)c3)c2=O)c1 [II-0480] | > 7.00
CNC(=O)c1cccc(C2(Nc3nc(=O)n(Cc4ccc[nH]c4=O)c(=O)n3Cc3cc(F)c(F)c(F)c3)CCC2)c1 [II-0481] | 7.00
Cn1cc2cc(Nc3nc(=O)n(-c4cnc5ccccn45)c(=O)n3Cc3ccc(F)c(C#N)c3)c(Cl)cc2n1 [II-0488] | > 7.00
Cn1cnc(Cn2c(=O)nc(Nc3cc4sc(NCC(F)F)nc4cc3Cl)n(Cc3ccc(F)c(C#N)c3)c2=O)n1 [II-0502] | > 7.00
Cn1cnc(Cn2c(=O)nc(Nc3cc4oc(N)nc4cc3Cl)n(Cc3cc(F)c(F)c(F)c3)c2=O)n1 [II-0511] | > 7.00
